Reference: US12168067B2, “Photostable antioxidant cosmetic composition” (priority 2019, dated 2024)

Test: Solution-based assay: residual trans-polydatin after irradiation with 1 molar equivalent of isomerization stabilizer
Type: physicochemical
Details: for Average of Relative Residual Trans-polydatin (percent): 0.5% by weight trans-polydatin in solution + 1 molar equivalent stabilizer, irradiated at 365 nm, 5 J total energy, HPLC-UV, per stabilizer; for Photo-stabilization of trans-polydatin in solution (in words): 365 nm, 5 J, comment on Table 2
Method: The stabilization of polydatin was evaluated in a solution-based assay where residual trans-polydatin percentage was determined after exposure to radiation. According to the experimental method, trans-polydatin was dissolved in an appropriate solvent at 0.5% by weight. To this solution was added 1 molar equivalent of an isomerization stabilizer. An aliquot of the resulting solution was diluted with methanol and the amount of trans-polydatin was quantified by HPLC-UV. The solution containing trans-polydatin and the additive was irradiated under controlled conditions at 365 nm using 5 J of total energy. An aliquot of the irradiated solution was diluted in methanol and the amount of trans-polydatin was quantified by HPLC-UV. The residual trans-polydatin was calculated by dividing the quantified amount of trans-polydatin obtained from the irradiated solution by the amount of trans-polydatin obtained from the non-irradiated solution and is expressed as a percentage. The relative residual is indicated for each photoisomerization stabilizer and is calculated as an average relative residual for classes of photoisomerization stabilizers where indicated.

| Compound | Average of Relative Residual Trans-polydatin (percent) | Photo-stabilization of trans-polydatin in solution (in words) |
| --- | --- | --- |
| O=c1cc(-c2ccccc2)oc2cc(O)c(O)c(O)c12 [Baicalein] | 42.9% |  |
| NC(=O)c1cccnc1 [Niacinamide] | −0.3% | ineffective |
| COc1ccc([C@@H]2CC(=O)c3c(O)cc(O[C@@H]4O[C@H](CO[C@@H]5O[C@@H](C)[C@H](O)[C@@H](O)[C@H]5O)[C@@H](O)[C@H](O)[C@H]4O)cc3O2)cc1O [Hesperidine] | 41.6% |  |
| Vitamin E | 0.6% | ineffective |
| O=C(O[C@@H]1Cc2c(O)cc(O)cc2O[C@@H]1c1cc(O)c(O)c(O)c1)c1cc(O)c(O)c(O)c1 [Epigallocatechine gallate] | 0.4% |  |
| COc1ccc([C@@H]2CC(=O)c3c(O)cc(O)cc3O2)cc1O [Hesperetin] | 30.6% |  |
| Glycosyl Hesperidin | 31.0% |  |
| Cc1cc(C(C)(C)C)c(O)c(C(C)(C)C)c1 [BHT, tert-butylhydroxytoluene] | −3.1% | ineffective |
| O=C1c2c(O)cc(O)cc2O[C@H](c2ccc(O)c(O)c2)[C@H]1O [Taxifolin] | 38.3% |  |
| O=c1cc(-c2ccc(O)cc2)oc2cc(O)cc(O)c12 [Apigenin] | 66.7% |  |
| O=C(O)C(O)c1ccccc1 (stereo not drawn) [Mandelic acid] | −0.9% | ineffective |

Results, then the compound that gave them:

| Average of Relative Residual Trans-polydatin (percent) | Photo-stabilization of trans-polydatin in solution (in words) | Compound |
| --- | --- | --- |
| 24.8% |  | O=c1c(O)c(-c2ccc(O)c(O)c2)oc2cc(O)cc(O)c12 [Quercetin] |
| 38.6% |  | O=C(O)/C=C/c1ccc(O)cc1 [p-coumaric acid] |
| 32.3% |  | O=C(O)[C@H]1O[C@@H](Oc2cc3oc(-c4ccccc4)cc(=O)c3c(O)c2O)[C@H](O)[C@@H](O)[C@@H]1O [Baicalin] |
| 35.5% |  | COc1cc(/C=C/C(=O)O)ccc1O [Ferulic acid] |
| 6.9% | ineffective | O=C1O[C@H]([C@@H](O)CO)C(O)=C1O[C@H]1O[C@H](CO)[C@@H](O)[C@H](O)[C@H]1O [Vitamin CG] |
| 63.3% |  | O=c1cc(-c2ccc(O)c(O)c2)oc2cc(O)cc(O)c12 [Luteolin] |
| −0.3% | ineffective | O=C(O)c1cc(O)c(O)c(O)c1 [Gallic acid] |
